Data from US20060069036A1, “Methods of treatment of inflammation using glutathiones” (priority 2004, published 2006).

Key:
[1] = system: GSH levels; settings: oral administration, cited from earlier work
[2] = system: psoriasis lesions
From the text: As of the filing of this application, a preliminary program of clinical testing has been conducted. […] Patients instructed to apply the product twice daily to the affected areas.

[3] = patients with psoriasis symptoms, topical cream 45 mg/ml GSH in phospholipid carrier, twice daily

SMILES | effect on GSH levels ([1]; HIV patients) | safety and tolerability [1] | adverse side effects ([2]; clinical studies to date, topical application) | response of patient lesions to treatment ([2]; patients with psoriasis symptoms, topical cream 45 mg/ml GSH in phospholipid carrier, applied twice daily to affected areas) | elasticity and supple feeling of the skin [2, 3] | inflammation, irritation, and erythema of the skin [2, 3] | time after first application to significant improvement (in some cases clearing) of lesions [2, 3] [h]
O=C(O)CCCCC1CCSS1 (stereo not drawn) [alpha-lipoic acid, Alpha-lipoic acid] | raises GSH levels | extremely safe and well tolerated |  |  |  |  | 
N[C@@H](CCC(=O)N[C@@H](CS)C(=O)NCC(=O)O)C(=O)O [reduced glutathione (GSH), N-L-gamma-glutamyl-cysteinyl glycine] |  |  | no adverse side effects | significantly improved | returned | decreased | ≤ 24
